Values quoted from earlier work, collected in patent US9682063B2, “HCD formulation for cancer treatment” (National Dong Hwa University, priority 2015, dated 2017).

Key:
[1] = background statement
CML K562 cells = conditions: background statement

In the case of `CC1=CCCC2C1(C)CCC(C)C2(C)CCC1=CC(=O)OC1O` (centres unmarked) [HCD, 16-Hydroxycleroda-3,13-dien-15,16-olide], the water solubility [1] is given as “poor water solubility” and the “apoptosis in CML K562 cells” value (CML K562 cells) is given as “induces apoptosis in CML K562 cells”.
